This is an account of results in patent publication US8293769B2, “CSF-1R inhibitors, compositions, and methods of use” (Novartis AG, priority 2008, dated 2012).

The inhibition is the change of the read-out against control, counted positive when it falls.

The target in experiment [1] is T1, cytoplasmic domain of the human CSF-1R (Homo sapiens, UniProt P07333).
T1 construct: Recombinant protein corresponding to the cytoplasmic domain of the human CSF-1R; purchased Invitrogen Corporation, Carlsbad, Calif; PV3249
T1 sequence (P07333 539-972 limits assumed): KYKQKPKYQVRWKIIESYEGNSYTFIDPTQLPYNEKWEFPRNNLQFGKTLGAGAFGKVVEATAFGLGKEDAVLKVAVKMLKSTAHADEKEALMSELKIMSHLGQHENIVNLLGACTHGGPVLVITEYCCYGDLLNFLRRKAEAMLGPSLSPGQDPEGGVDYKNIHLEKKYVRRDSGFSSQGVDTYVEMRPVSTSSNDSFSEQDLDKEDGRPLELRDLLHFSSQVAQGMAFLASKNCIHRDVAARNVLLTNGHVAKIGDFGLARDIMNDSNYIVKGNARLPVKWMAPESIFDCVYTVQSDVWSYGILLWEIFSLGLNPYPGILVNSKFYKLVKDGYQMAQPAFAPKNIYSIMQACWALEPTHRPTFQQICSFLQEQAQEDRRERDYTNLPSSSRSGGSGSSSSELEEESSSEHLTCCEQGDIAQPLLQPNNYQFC
Nature of the experiment: In vitro kinase assay for CSF-1R (AlphaScreen). It is filed as biochemical. Conditions: tested at about 1 μM; read-out: CSF1RK 1 percent inhibition. The method in brief: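 Recombinant CSF-1R cytoplasmic domain (4 nM) phosphorylated biotinylated peptide (0.05 μM) at 1.0 μM ATP in HEPES with Mg2+/Mn2+, 2 h at room temperature, compounds from 25 μM in 3-fold steps. AlphaScreen anti-phosphotyrosine PT66 detection; IC50 by non-linear regression.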
A general note: In Alpha technology, singlet oxygen from a donor bead excites a nearby acceptor bead.

For experiment [2], the system named is MNFS60 (murine AML cells). The experiment is described as follows: Cell viability assay in MCSF dependent MNFS60 cells (Cell Titer Glo). It counts as cell-based. The settings on record: Mus musculus; tested at about 1 μM; MCSF 10 ng/mL, 72 hrs; read-out: CPEC50 MNFS60MCSF percent inhibition. As to the method:
Cell viability was assessed by Cell Titer Glo, Promega. MNFS60 (murine AML cells) were seeded in TC treated 96-well plates at a density of 5,000 cells per well in RPMI-1640, 10% FBS, and 1% Penicillin Streptomycin prior to addition of compound. Test compounds were serially diluted (3 fold) in DMSO to 500× the final concentration. For each concentration of test compound, 2 μl (500×) aliquots of compound or 100% DMSO (control) were diluted in 500 μl of culture medium that contained 2× final concentration of growth factor MCSF for 2× concentration and then diluted 1× on the cells. Final concentration of MCSF is 10 ng/mL. Cells were incubated for 72 hrs at 37° C., 5% CO2. After the incubation 100 μl Cell Titer Glo is added to each well to determine viable cells. The assay was performed according to the manufacturer's instruction (Promega Corporation, Madison, Wis. USA). Each experimental condition was performed in triplicate. Raw data was imported in Abase and EC50s calculated with XL-fit data analysis software: Relative light units of wells that contained cells without MCSF in the media and as a consequence didn't grow were defined as 100% inhibited.

In another experiment the target is T2, PDGFRb (Homo sapiens, UniProt P09619).
T2 construct: The kinase domain of PDGFRβ was assayed in 50 mM Hepes; purchased Invitrogen P3082
T2 sequence (P09619 600-962 limits assumed): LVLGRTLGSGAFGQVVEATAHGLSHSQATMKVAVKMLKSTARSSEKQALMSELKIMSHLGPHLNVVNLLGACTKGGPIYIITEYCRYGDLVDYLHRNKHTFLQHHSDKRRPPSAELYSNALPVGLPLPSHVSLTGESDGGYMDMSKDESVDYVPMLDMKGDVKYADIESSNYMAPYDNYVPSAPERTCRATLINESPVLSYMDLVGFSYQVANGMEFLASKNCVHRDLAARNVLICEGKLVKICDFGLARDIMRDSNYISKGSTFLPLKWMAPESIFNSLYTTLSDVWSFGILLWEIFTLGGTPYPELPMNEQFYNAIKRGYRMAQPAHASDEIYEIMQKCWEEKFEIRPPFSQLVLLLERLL
Nature of the experiment: PDGFRb kinase in vitro biochemical assay (alphascreen). Conditions: tested at about 1 μM; read-out: PDGF RK BETA percent inhibition.

In another experiment the target is T3, cKIT (Homo sapiens, UniProt P10721).
T3 construct: The kinase domain of cKIT was assayed in 50 mM Hepes; purchased Upstate 14-559
T3 sequence (P10721 589-937 limits assumed): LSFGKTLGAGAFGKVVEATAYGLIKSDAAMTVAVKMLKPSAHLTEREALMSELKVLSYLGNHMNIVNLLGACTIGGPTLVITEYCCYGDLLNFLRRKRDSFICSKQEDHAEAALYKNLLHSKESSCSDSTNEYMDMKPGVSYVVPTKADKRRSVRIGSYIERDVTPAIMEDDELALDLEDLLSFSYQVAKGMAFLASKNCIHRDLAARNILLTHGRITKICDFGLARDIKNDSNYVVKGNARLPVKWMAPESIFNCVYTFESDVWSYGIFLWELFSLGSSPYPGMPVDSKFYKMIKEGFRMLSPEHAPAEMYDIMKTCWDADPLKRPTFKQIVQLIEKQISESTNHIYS
The experiment is described as follows: cKIT kinase in vitro biochemical assay (alphascreen). The settings on record: tested at about 1 μM; read-out: CKIT percent inhibition.

As for `C[C@H](Nc1nc2ccc(Oc3cc(-n4cncn4)ncn3)cc2s1)C1CCCCC1` [Compound 41, (S)-6-(6-(1H-1,2,4-triazol-1-yl)pyrimidin-4-yloxy)-N-(1-cyclohexylethyl) benzo[d]thiazol-2-amine], the inhibition at 1 µM in experiment [1] worked out at 99%; in experiment [2] it was 0%; at PDGFRb, 0%; at cKIT it was 28%.
In the case of `Cn1ncc2c(Oc3ccc4nc(NCC5CCCCC5)sc4c3)ncnc21` [Compound 44, N-(cyclohexylmethyl)-6-(1-methyl-1H-pyrazolo[3,4-d]pyrimidin-4-yloxy)benzo[d]thiazol-2-amine], the inhibition at 1 µM in experiment [1] worked out at 99%; in experiment [2] it was 0%; at PDGFRb, 19%; on cKIT it was 14%.
Consider `Cn1cc(-c2cncc(Oc3ccc4nc(N[C@@H]5CCCC[C@H]5O)sc4c3)c2)cn1` [Compound 46, (1R,2R)-2-(6-(5-(1-methyl-1H-pyrazol-4-yl)pyridin-3-yloxy)benzo[d]thiazol-2-ylamino)cyclohexanol], for which the inhibition at 1 µM was found to be 100% in experiment [1], 100% in experiment [2], 12% on PDGFRb and 60% at cKIT.
Turning to `Nc1ccc(-c2cncc(Oc3ccc4nc(N[C@@H]5CCCC[C@H]5O)sc4c3)c2)cn1` [Compound 47, (1R,2R)-2-(6-(6′-amino-3,3′-bipyridin-5-yloxy)benzo[d]thiazol-2-ylamino) cyclohexanol], the inhibition at 1 µM worked out at 100% in experiment [1], 100% in experiment [2], 1% at PDGFRb and 63% at cKIT.
For `CNC(=O)c1ccc(Oc2ccc3nc(NCC4CCCCC4)sc3c2)cn1` [Compound 48, 5-(2-(cyclohexylmethylamino)benzo [d]thiazol-6-yloxy)-N-methylpicolinamide], the inhibition at 1 µM in experiment [1] is 96%; in experiment [2], 0%; on PDGFRb it was 8%; at cKIT it was 22%.
On the same counts, the results for `CNC(=O)c1cncc(Oc2ccc3nc(N[C@@H](C)C4CCCCC4)sc3c2)n1` [Compound 51, (S)-6-(2-(1-cyclohexylethylamino)benzo[d]thiazol-6-yloxy)-N-methylpyrazine-2-carboxamide] are 97%, 3%, 14% and 32%.
Regarding `CNC(=O)c1ccc(Oc2ccc3nc(N[C@@H](C)C4CCCCC4)sc3c2)cn1` [Compound 53, (S)-5-(2-(1-cyclohexylethylamino)benzo[d]thiazol-6-yloxy)-N-methylpicolinamide], the inhibition at 1 µM in experiment [1] worked out at 98%; in experiment [2] it was 13%; on PDGFRb it was 13%; on cKIT, 12%.
Consider `O[C@@H]1CCCC[C@H]1Nc1nc2ccc(Oc3cncc(-c4cncs4)c3)cc2s1` [Compound 70, (1R,2R)-2-(6-(5-(thiazol-5-yl)pyridin-3-yloxy)benzo[d]thiazol-2-ylamino) cyclohexanol], for which the inhibition at 1 µM was found to be 100% in experiment [1], 100% in experiment [2], 13% at PDGFRb and 64% at cKIT.
In the case of `N#Cc1ccc(-c2cncc(Oc3ccc4nc(N[C@@H]5CCCC[C@H]5O)sc4c3)c2)cn1` [Compound 73, 5′-(2-((1R,2R)-2-hydroxycyclohexylamino)benzo[d]thiazol-6-yloxy)-3,3′-bipyridine-6-carbonitrile], the inhibition at 1 µM in experiment [1] was 99%; in experiment [2], 23%; on PDGFRb, 3%; at cKIT it was 44%.
On the same counts, the results for `COc1cncc(-c2cncc(Oc3ccc4nc(N[C@@H]5CCCC[C@H]5O)sc4c3)c2)c1` [Compound 74, (1R,2R)-2-(6-(5′-methoxy-3,3′-bipyridin-5-yloxy)benzo [d]thiazol-2-ylamino) cyclohexanol] are 100%, 100%, 1% and 59%.
`O=C(c1cncc(-c2cncc(Oc3ccc4nc(N[C@@H]5CCCC[C@H]5O)sc4c3)c2)c1)N1CCOCC1` [Compound 75, (5′-(2-((1R,2R)-2-hydroxycyclohexylamino)benzo[d]thiazol-6-yloxy)-3,3′-bipyridin-5-yl) (morpholino)methanone]: the inhibition at 1 µM is 100% in experiment [1], 33% in experiment [2], 5% at PDGFRb and 28% on cKIT.
As to `CN(C)c1ncc(-c2cncc(Oc3ccc4nc(N[C@@H]5CCCC[C@H]5O)sc4c3)c2)cn1` [Compound 76, (1R,2R)-2-(6-(5-(2-(dimethylamino)pyrimidin-5-yl)pyridin-3-yloxy)benzo [d]thiazol-2-ylamino) cyclohexanol], the inhibition at 1 µM in experiment [1] turned out to be 100%; in experiment [2] it was 54%; at PDGFRb, 0%; at cKIT it was 24%.
Turning to `CCn1cc(-c2cncc(Oc3ccc4nc(N[C@@H]5CCCC[C@H]5O)sc4c3)c2)cn1` [Compound 80, (1R,2R)-2-(6-(5-(1-ethyl-1H-pyrazol-4-yl)pyridin-3-yloxy)benzo[d]thiazol-2-ylamino)cyclohexanol], the inhibition at 1 µM in experiment [1] was 100%; in experiment [2], 100%; at PDGFRb, 0%; on cKIT, 66%.
Take `CCN(CC)CCn1cc(-c2cncc(Oc3ccc4nc(N[C@@H]5CCCC[C@H]5O)sc4c3)c2)cn1` [Compound 81, (1R,2R)-2-(6-(5-(1-(2-(diethylamino)ethyl)-1H-pyrazol-4-yl)pyridin-3-yloxy)benzo[d]thiazol-2-ylamino)cyclohexanol]: the inhibition at 1 µM in experiment [1] worked out at 100%; in experiment [2] it was 100%; at PDGFRb, 0%; at cKIT, 56%.
In the case of `O[C@@H]1CCCC[C@H]1Nc1nc2ccc(Oc3cncc(-c4cnccn4)c3)cc2s1` [Compound 84, (1R,2R)-2-(6-(5-(pyrazin-2-yl)pyridin-3-yloxy)benzo[d]thiazol-2-ylamnino) cyclohexanol], the inhibition at 1 µM in experiment [1] was 100%; in experiment [2] it was 100%; at PDGFRb it was 100%; at cKIT, 99%.
On to `O[C@@H]1CCCC[C@H]1Nc1nc2ccc(Oc3cncc(C4=CCNCC4)c3)cc2s1` [Compound 85, (1R,2R)-2-(6-(5-(1,2,3,6-tetrahydropyridin-4-yl)pyridin-3-yloxy)benzo[d]thiazol-2-ylamino)cyclohexanol], for which the inhibition at 1 µM in experiment [1] came to 96%; in experiment [2], 13%; at PDGFRb, 2%; on cKIT, 13%.
On to `O[C@@H]1CCCC[C@H]1Nc1nc2ccc(Oc3cncc(-c4cnn(CCN5CCOCC5)c4)n3)cc2s1` [Compound 95, (1R,2R)-2-(6-(6-(1-(2-morpholinoethyl)-1H-pyrazol-4-yl)pyrazin-2-yloxy)benzo[d]thiazol-2-ylamino)cyclohexanol], for which the inhibition at 1 µM in experiment [1] was determined as 100%; in experiment [2], 47%; at PDGFRb, 8%; at cKIT, 18%.
Consider `O[C@@H]1CCCC[C@H]1Nc1nc2ccc(Oc3cncc(-c4cccnc4)n3)cc2s1` [Compound 96, (1R,2R)-2-(6-(6-(pyridin-3-yl)pyrazin-2-yloxy)benzo[d]thiazol-2-ylamino) cyclohexanol], for which the inhibition at 1 µM in experiment [1] amounted to 100%; in experiment [2], 32%; at PDGFRb it was 9%; at cKIT, 23%.
